Reference: PMC4632086, “Effects and possible mechanisms of action of acacetin on the behavior and eye morphology of Drosophila models of Alzheimer’s disease” (Scientific Reports, 2015)
Like-named read-outs stand apart in the source and are kept apart here.

What was measured:
recombinant human BACE-1 = target: T1, recombinant human BACE-1 (Homo sapiens, UniProt P56817); test: FRET-based enzyme assay, BACE-1 inhibition; assay type: biochemical; settings: for IC50: pH 4.5, 1 h at 25 °C; for Slope ± SE: slope of concentration-inhibition fit
T1 construct: purchased R&D Systems (Minneapolis, MN, USA)

[1] = system: transgenic Drosophila AD models; parameters: method as in PMID 22348084; settings: five different transgenic Drosophila AD models; cited from earlier work
human BACE-1 = settings: cited from earlier work

T1 sequence (P56817 46-501): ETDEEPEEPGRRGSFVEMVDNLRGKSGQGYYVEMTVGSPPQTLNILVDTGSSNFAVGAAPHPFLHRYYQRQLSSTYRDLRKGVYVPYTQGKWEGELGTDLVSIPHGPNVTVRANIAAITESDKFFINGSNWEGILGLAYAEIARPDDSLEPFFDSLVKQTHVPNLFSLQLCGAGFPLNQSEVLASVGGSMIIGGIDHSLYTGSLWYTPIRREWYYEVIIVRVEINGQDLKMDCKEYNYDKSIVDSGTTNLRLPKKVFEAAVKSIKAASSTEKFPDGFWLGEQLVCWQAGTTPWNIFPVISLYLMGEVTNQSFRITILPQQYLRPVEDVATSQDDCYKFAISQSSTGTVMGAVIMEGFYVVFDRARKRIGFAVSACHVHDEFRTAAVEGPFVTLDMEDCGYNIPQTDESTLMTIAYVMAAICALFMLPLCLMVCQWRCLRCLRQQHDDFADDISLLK

With `COc1ccc(-c2cc(=O)c3c(O)cc(O)cc3o2)cc1` [Pure acacetin, acacetin] the IC50 (recombinant human BACE-1; read-out: IC50, μM (95% CL)) was 81.2 µM and the “Slope ± SE” value (recombinant human BACE-1) was 0.4 ± 0.03.

In the case of `COc1cc(/C=C/C(=O)CC(=O)/C=C/c2ccc(O)c(OC)c2)ccc1O` [curcumin], the improved lifespan [1] is given as “up to 75%”.

In the case of `O=C1O[C@H]2[C@@H]3OC(=O)c4cc(O)c(O)c(O)c4-c4c(cc(O)c(O)c4O)C(=O)OC[C@H]2O[C@@H](OC(=O)c2cc(O)c(O)c(O)c2)[C@@H]3OC(=O)c2cc(O)c(O)c3c2[C@@H]2C1=CC(=O)[C@](O)(O3)C2(O)O` [geraniin], the IC50 (human BACE-1; tannins) is listed as 4 µM.

In the case of `O=C(O[C@@H]1O[C@@H]2COC(=O)c3cc(O)c(O)c(O)c3-c3c(cc(O)c(O)c3O)C(=O)O[C@H]([C@H]1O)[C@@H]2O)c1cc(O)c(O)c(O)c1` [corilagin], the IC50 (human BACE-1; tannins) is listed as 34 µM.

For `COc1cc2c(cc1O)CC[n+]1cc3c4c(ccc3cc1-2)OCO4` [groenlandicine], the IC50 (human BACE-1; alkaloids) is given as 19.7 µM.

For `C=C[C@@](C)(/C=C/c1ccc(O)cc1)CCC=C(C)C` [bakuchiol], the IC50 (human BACE-1) is listed as 21.4 µM.

Work on `CC1(C)CC[C@]2(C(=O)O)CC[C@]3(C)C(=CC[C@@H]4[C@@]5(C)CC[C@H](O)C(C)(C)[C@@H]5CC[C@]43C)[C@@H]2C1` [Oleanolic acid, oleanolic acid] yielded an IC50 (recombinant human BACE-1; read-out: IC50, μM (95% CL)) of 355 µM.

For `CC1(C)CC[C@]2(C(=O)O)CC[C@]3(C)C(=CC[C@@H]4[C@@]5(C)C[C@@H](O)[C@H](O)C(C)(C)[C@@H]5CC[C@]43C)[C@@H]2C1` [Maslinic acid, maslinic acid], the IC50 (recombinant human BACE-1; IC50, μM (95% CL)) was 488 µM and the “Slope ± SE” value (recombinant human BACE-1) was 1.4 ± 0.09.

For `O=C(O)/C=C/c1ccc(O)cc1` [p-coumaric acid], the IC50 (human BACE-1; phenylpropanoids) is listed as 90 µM.

For `C/C=C/c1cc(=O)c2c(C)cc(OC)c([C@@H]3O[C@H](CO)[C@@H](O)[C@H](O)[C@H]3O)c2o1` [C-2′-decoumaroyl-aloeresin G], the IC50 (human BACE-1; benzopyranoids) is given as 20.5 µM.

For `COc1cc2c(cc1OC)-c1cc3ccc4c(c3c[n+]1CC2)OCO4` [epiberberi], the IC50 (human BACE-1; alkaloids) is given as 8.55 µM.

In the case of `COc1cc(C)c2c(=O)cc(C[C@@H](C)O)oc2c1[C@@H]1O[C@H](CO)[C@@H](O)[C@H](O)[C@H]1OC(=O)/C=C/c1ccc(O)cc1` [aloeresin D], the IC50 (human BACE-1; benzopyranoids) is listed as 39 µM.
